Holding throughout (format): biochemical
One experiment has as its target metalloelastase (MMP-12) (Homo sapiens, UniProt P39900). The experiment in a line: MMP-12 enzyme inhibition assay (coumarin-labelled peptide substrate). The settings on record: read-out: IC50 MMP12. Summed up:
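Recombinant human MMP-12 assayed per the MMP-9 protocol: Tris-HCl pH 7.6 buffer with NaCl, CaCl2, Brij 35; McaPLGLDpaAR substrate, compounds 100 μM–5.1 nM in duplicate, 2 h at 37° C. Fluorescence read at 405 nm (320 nm excitation) without stopping; IC50 from four-parameter fit.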

The target in the next experiment is T1, collagenase (MMP-1) (Homo sapiens, UniProt P03956).
T1 sequence (P03956 100-469): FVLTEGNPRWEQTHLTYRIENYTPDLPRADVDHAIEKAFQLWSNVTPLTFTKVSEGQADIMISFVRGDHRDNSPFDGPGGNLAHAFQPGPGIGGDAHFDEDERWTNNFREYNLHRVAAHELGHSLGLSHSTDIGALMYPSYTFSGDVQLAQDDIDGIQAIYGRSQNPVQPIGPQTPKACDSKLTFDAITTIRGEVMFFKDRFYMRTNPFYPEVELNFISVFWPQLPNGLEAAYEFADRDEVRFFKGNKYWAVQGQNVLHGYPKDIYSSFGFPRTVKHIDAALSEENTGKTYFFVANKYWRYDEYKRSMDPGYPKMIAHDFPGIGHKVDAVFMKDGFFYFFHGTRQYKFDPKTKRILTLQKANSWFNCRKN
The experiment in a line: MMP-1 enzyme inhibition assay (coumarin-labelled peptide substrate). The conditions noted are these: for inhibition at 5 µM: read-out: percentage inhibition MMP1; for IC50: read-out: IC50 MMP1. A digest of the protocol: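 Recombinant human MMP-1, APMA-activated if needed, in Tris-HCl pH 7.6 with NaCl, CaCl2 and 0.05% Brij 35; McaPLGLDpaAR substrate added as 8 μM solution, 2 h at 37 °C. Fluorescence (320/405 nm) read without stopping; IC50 from 10 duplicate concentrations (100 μM–5.1 nM) by four-parameter fit.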

Experiment [1] concerns the target 92 kDa gelatinase (MMP-9) (Homo sapiens, UniProt P14780). The experiment in a line: MMP-9 enzyme inhibition assay (coumarin-labeled peptide substrate). The conditions noted are these: for inhibition at 5 µM: read-out: percentage inhibition MMP9; for IC50: read-out: IC50 MMP9. Summed up: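 Recombinant human MMP-9 (APMA-activated if needed) was assayed in 100 mM Tris-HCl pH 7.6, 100 mM NaCl, 10 mM CaCl2, 0.05% Brij 35, with McaPLGLDpaAR substrate at 37° C. for 2 h. Fluorescence was read at ex 320/em 405 nm over ten 3-fold compound doses (100 μM–5.1 nM) in duplicate. IC50 came from a four-parameter fit.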

For another experiment, the target named is MMP-14 (Homo sapiens, UniProt P50281). The experiment in a line: MMP-14 enzyme inhibition assay (coumarin-labelled peptide substrate). The conditions noted are these: for inhibition at 0.1 µM / inhibition at 5 µM: read-out: percentage inhibition MMP14; for IC50: read-out: IC50 MMP14. Summed up:
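Recombinant human enzyme, APMA-activated if necessary, was incubated with McaPLGLDpaAR substrate and compound (10 concentrations in duplicate, 100 μM to 5.1 nM) in Tris-HCl pH 7.6 with NaCl, CaCl2 and Brij 35 for 2 h at 37 °C. Fluorescence was read at 320/405 nm, and IC50 was taken from a four-parameter fit.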

This note sets out measurements from US7879876B2, “Sulfonamide derivatives and use thereof for the modulation of metalloproteinases” (Merck Serono SA, priority 2005, dated 2011).

The IC50 is the midpoint of a concentration-inhibition curve. For orientation: inhibition means the change of the read-out against control, counted positive when it falls.

Sequence of 92 kDa gelatinase (MMP-9) (P14780 107-707 limits assumed): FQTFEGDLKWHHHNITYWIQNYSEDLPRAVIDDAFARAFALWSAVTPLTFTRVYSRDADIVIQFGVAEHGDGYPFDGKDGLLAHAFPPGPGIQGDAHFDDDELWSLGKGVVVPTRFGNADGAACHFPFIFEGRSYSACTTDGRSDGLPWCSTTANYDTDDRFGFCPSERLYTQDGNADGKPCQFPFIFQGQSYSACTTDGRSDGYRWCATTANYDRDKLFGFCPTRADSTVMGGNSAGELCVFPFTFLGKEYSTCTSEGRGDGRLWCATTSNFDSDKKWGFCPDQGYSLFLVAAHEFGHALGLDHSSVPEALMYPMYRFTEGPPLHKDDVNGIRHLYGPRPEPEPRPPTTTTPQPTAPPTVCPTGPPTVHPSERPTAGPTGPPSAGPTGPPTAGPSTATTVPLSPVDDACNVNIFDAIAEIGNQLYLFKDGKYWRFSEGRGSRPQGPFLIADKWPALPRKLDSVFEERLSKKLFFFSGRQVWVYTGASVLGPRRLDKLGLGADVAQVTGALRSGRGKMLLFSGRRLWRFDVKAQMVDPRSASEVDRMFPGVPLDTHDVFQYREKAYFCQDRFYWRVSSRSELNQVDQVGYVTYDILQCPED
Sequence of metalloelastase (MMP-12) (P39900 106-470): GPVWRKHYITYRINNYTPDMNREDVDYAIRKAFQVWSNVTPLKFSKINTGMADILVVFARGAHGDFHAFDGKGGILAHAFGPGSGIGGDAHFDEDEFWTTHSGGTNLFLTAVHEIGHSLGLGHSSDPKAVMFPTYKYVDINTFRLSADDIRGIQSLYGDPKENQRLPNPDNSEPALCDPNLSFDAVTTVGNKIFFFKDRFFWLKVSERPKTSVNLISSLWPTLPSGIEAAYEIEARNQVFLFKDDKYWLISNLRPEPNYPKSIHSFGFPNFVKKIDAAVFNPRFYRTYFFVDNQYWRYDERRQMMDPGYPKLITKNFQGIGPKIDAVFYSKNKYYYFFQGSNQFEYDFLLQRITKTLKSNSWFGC

Regarding `O=CN(O)C(CS(=O)(=O)N1CCc2cc(C(F)(F)F)ccc2C1)[C@H]1CCCO1` (stereo partly drawn) [Example 47, N-hydroxy-N-(1-[(2R)-tetrahydrofuran-2-yl]-2-{[6-(tri-fluoromethyl)-3,4-dihydroisoquinolin-2(1H)-yl]sulfonyl}ethyl)formamide], the IC50 on metalloelastase (MMP-12) came out at 2.5 nM. Besides, the figures for the inhibition at 5 µM (on collagenase (MMP-1); in experiment [1]; on MMP-14) were 40%, 40% and 79%, respectively. The inhibition at 0.1 µM on MMP-14 stood at 7%.

Regarding `CCC(CC)C(CS(=O)(=O)N1CCc2ccc(Br)cc2C1)N(O)C=O` (stereo not drawn) [Example 36, N-(1-{[(7-bromo-3,4-dihydroisoquinolin-2(1H)-yl)sulfonyl]-methyl}-2-ethylbutyl)-N-hydroxyformamide], the IC50 at metalloelastase (MMP-12) was 5.7 nM. Also, the inhibition at 5 µM came to 41% on collagenase (MMP-1), 37% in experiment [1] and 75% on MMP-14. Moreover, at MMP-14, the inhibition at 0.1 µM came out at 3%.

For `CC1(C)OC[C@H](C(CS(=O)(=O)N2CCc3ccccc3C2)N(O)C=O)O1` (stereo partly drawn) [Example 2, N-{2-(3,4-dihydroisoquinolin-2(1H)-ylsulfonyl)-1-[(4S)-2,2-dimethyl-1,3-dioxolan-4-yl]ethyl}-N-hydroxyformamide], the IC50 is 14 nM at metalloelastase (MMP-12), more than 5 µM on collagenase (MMP-1), more than 5000 nM in experiment [1] and more than 5000 nM at MMP-14.

Consider `O=CN(O)C(CCc1ccccc1)CS(=O)(=O)N1Cc2ccccc2C1` (stereo not drawn) [Example 6, N-{1-[(1,3-dihydro-2H-isoindol-2-ylsulfonyl)methyl]-3-phenylpropyl}-N-hydroxyformamide], for which the IC50 was 9 nM on metalloelastase (MMP-12), more than 5 µM at collagenase (MMP-1), 877 nM in experiment [1] and 865 nM at MMP-14.
